# Measurements reported in patent publication US20260028354A1, “TETRAHYDRONAPHTHALENE DERIVATIVES AS ESTROGEN RECEPTOR DEGRADERS” (REGENT OF THE UNIVERSITY OF MICHIGAN, priority 2022, published 2026).
# Counter-ions that a name gives are not always drawn. Like-named read-outs stand apart in the source and are kept apart here.
# Columns and labels:
# Assay type in all cases: cell-based
# [1] = Western blot analysis for "B" compounds; settings: read-out: Traditional Western Degradation Potency (DC50)
# Procedure: Western Blot Analysis. Western blot analysis was performed essentially as described previously. The cells treated with indicated compounds were lysed in Radioimmunoprecipitation Assay Protein Lysis and Extraction Buffer (25 mmol/I. Tris.HCl, pH 7.6, 150 mmol/L, NaCl, 1% Nonidet P-40, 1% sodium deoxycholate, and 0.1% sodium dodecyl sulfate) containing proteinase inhibitor cocktail (Roche Diagnostics, Mannheim, Germany). Equal amounts of total protein were electrophoresed through 10% SDS-polyacrylamide gels after determination of protein concentration by BCA assay (Fisher Scientific, Pittsburgh, PA), The separated protein bands were transferred onto PVDF membranes (GE Healthcare Life Sciences, Marlborough, MA) and blotted against different antibodies, as indicated. The blots were scanned, and the band intensities were quantified using GelQuant.NET software provided by biochemlabsolutions.com. The relative mean intensity of target proteins was expressed after normalization to the intensity of glyceraldehyde-3-phosphate dehydrogenase bands.
# ER in T47D cells = ER in T47D cells (Homo sapiens (Human), UniProt P03372); assay: In-cell Western (ICW) ER degradation assay in T47D cells; settings: for DC50: ER degradation
# ER in T47D cells, sequence (P03372 whole entry): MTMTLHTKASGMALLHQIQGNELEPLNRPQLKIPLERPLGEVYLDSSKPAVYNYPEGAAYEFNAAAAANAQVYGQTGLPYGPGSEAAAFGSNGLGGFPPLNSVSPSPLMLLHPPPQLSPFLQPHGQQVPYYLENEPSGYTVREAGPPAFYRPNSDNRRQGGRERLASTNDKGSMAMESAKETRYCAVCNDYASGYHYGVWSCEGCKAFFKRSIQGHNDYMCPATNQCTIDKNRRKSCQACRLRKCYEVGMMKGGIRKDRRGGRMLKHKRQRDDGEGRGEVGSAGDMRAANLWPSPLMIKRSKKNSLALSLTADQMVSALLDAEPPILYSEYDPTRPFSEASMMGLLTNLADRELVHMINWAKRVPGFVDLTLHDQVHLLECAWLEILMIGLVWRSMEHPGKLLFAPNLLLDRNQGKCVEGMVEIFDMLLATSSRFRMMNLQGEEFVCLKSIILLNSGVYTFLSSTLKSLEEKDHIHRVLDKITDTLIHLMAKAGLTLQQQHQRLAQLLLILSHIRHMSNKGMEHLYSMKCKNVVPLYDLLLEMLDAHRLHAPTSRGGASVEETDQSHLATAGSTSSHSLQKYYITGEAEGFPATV
# Text: (§1) In-cell Western (ICW) assays in MCF-7 and T47D cell lines.
# (§2) Day 3: After 16 hrs of compounds treatment, cells were fixed by 4% PFA and permeabilized with elution buffer (0.1% Triton X-100 in 1% PBS Solution). Subsequently, cells were blocked with Intercept (PBS) Blocking Buffer (Li-COR, Odyssey Blocking Buffer), and were stained with ER (1:500, Cell signaling) primary antibody for overnight at cold room.
# (§3) Day 4: Remove the buffer, add IRDye 800CW Goat anti-Rabbit IgG Secondary Antibody (1:2000) and CellTag 700 Stain (1:500) in Intercept (PBS) Blocking Buffer. Finally, cell plate is placed in incubator to dry. Image and signal were captured on Odyssey® DLx Imaging System.
# ER in MCF-7 cells = ER in MCF-7 cells (Homo sapiens (Human), UniProt P03372); assay: In-cell Western (ICW) ER degradation assay in MCF-7 cells; settings: for DC50: MCF-7, ER degradation, read-out: MCF7 DC50
# ER in MCF-7 cells, sequence (P03372 whole entry): as above
# Text: as §1, §2, §3
# [2] = maximal ER degradation, 16 hrs treatment
# [3] = MCF7, read-out: MCF7 Dmax, MCF-7, maximal ER degradation, 16 hrs treatment
# [4] = read-out: T47D Dmax, T47D, maximal ER degradation, 16 hrs treatment
Molecule,DC50 [1],DC50 (ER in T47D cells; 16 hrs treatment),DC50 (ER in MCF-7 cells; 16 hrs treatment),also measured
"2-(2,6-dioxopiperidin-3-yl)-6-(1-((1-(4-((1R,2S)-6-hydroxy-2- phenyl-1,2,3,4-tctrahydronaphthalcn-1-yl)phenyl)pipcridin-4- yl)methyl)piperidin-4-yl)-2,3,5,6-tetrahydropyrrolo[3,4- f]isoindole-1,7-dione [Compound B304]",> 100 nM,,,
"2-(2,6-dioxopiperidin-3-yl)-6-((1S,4s)-4-((3-((4-((1R,2S)-6- hydroxy-2-phenyl-1,2,3,4-tetrahydronaphthalen-1- yl)phenyl)amino)azetidin-1-yl)methyl)cyclohexane-1- carbonyl)-6,7-dihydropyrrolo[3,4-f]isoindole-1,3(2H,5H)- dionc [Compound B113]",10 to 100 nM,,,
"3-(6-((1R,4r)-4-(3-((4-((1R,2S)-6-hydroxy-2-phenyl-1,2,3,4- tetrahydronaphthalen-1-yl)phenyl)amino)azetidin-1- yl)cyclohexane-1-carbonyl)-1-oxo-3,5,6,7- tetrahydropyrrolo[3,4-f]isoindol-2(1H)-yl)pipcridinc-2,6-dionc [Compound B109]",< 10 nM,,,
"3-(6-((1R,4r)-4-(3-((4-((1R,2S)-6-hydroxy-2-phenyl-1,2,3,4- tetrahydronaphthalen-1-yl)phenyl)amino)azetidin-1- yl)cyclohexane-1-carbonyl)-1-oxo-3,5,6,7- tetrahydropyrrolo[3,4-f]isoindol-2(1H)-yl)piperidine-2,6-dione [Compound B115]",> 100 nM,,,
"3-(6-((1S,4s)-4-(3-((4-((1R,2S)-6-hydroxy-2-phenyl-1,2,3,4- tetrahydronaphthalcn-1-yl)phenyl)amino)azctidin-1- yl)cyclohexane-1-carbonyl)-1-oxo-3,5,6,7- tetrahydropyrrolo[3,4-f]isoindol-2(1H)-yl)piperidine-2,6-dione [Compound B110]",> 100 nM,,,
"3-(6-((1S,4s)-4-(3-((4-((1R,2S)-6-hydroxy-2-phenyl-1,2,3,4- tetrahydronaphthalen-1-yl)phenyl)amino)azetidin-1- yl)cyclohexane-1-carbonyl)-1-oxo-3,5,6,7- tetrahydropyrrolo[3,4-f]isoindol-2(1H)-yl)piperidine-2,6-dione [Compound B116]",> 100 nM,,,
"O=C1CCC(N2Cc3cc4c(cc3C2=O)CN(CC2CCN(c3ccc([C@@H]5c6ccc(O)cc6CC[C@@H]5c5ccccc5)cc3)CC2)C4)C(=O)N1 (mixture of isomers) [Compound B1, 3-(6-((1-(4-((1R,2S)-6-hydroxy-2-phenyl-1,2,3,4-tetrahydronaphthalen-1-yl)phenyl)piperidin-4-yl)methyl)-1-oxo-3,5,6,7-tetrahydropyrrolo[3,4-f]isoindol-2(1H)-yl)piperidine-2,6-dione]",> 100 nM,,,
"O=C1CCC(N2C(=O)c3cc4c(cc3C2=O)CN(CC2CCN(c3ccc([C@@H]5c6ccc(O)cc6CC[C@@H]5c5ccccc5)cc3)CC2)C4)C(=O)N1 (mixture of isomers) [Compound B2, 2-(2,6-dioxopiperidin-3-yl)-6-((1-(4-((1R,2S)-6-hydroxy-2-phenyl-1,2,3,4-tetrahydronaphthalen-1-yl)phenyl)piperidin-4-yl)methyl)-6,7-dihydropyrrolo[3,4-f]isoindole-1,3(2H,5H)-dione]",10 to 100 nM,,,
"O=C1CC[C@@H](N2Cc3cc4c(cc3C2=O)OC[C@H]2CN(CC3COC5(C3)CN(c3ccc([C@H]6c7ccc(O)cc7CC[C@H]6c6ccccc6)cc3)C5)CCN42)C(=O)N1 (stereo in doubt) [Compound A8, (3R)-3-((4aR)-3-((2-(4-((1S,2R)-6-hydroxy-2-phenyl-1,2,3,4-tetrahydronaphthalen-1-yl)phenyl)-5-oxa-2-azaspiro[3,4]octan-7-yl)methyl)-8-oxo-1,2,3,4,4a,5,8,10-octahydro-9H-pyrazino[1′,2′: 4,5][1,4]oxazino[2,3-f]isoindol-9-yl)piperidine-2,6-dione]",,< 1 nM,< 1 nM,T47D Dmax (ER in T47D cells; [2]): A (“A”: >=75%); Dmax (ER in MCF-7 cells; [3]): > 75%
"COc1cc(N2CCC(CN3CCC(c4ccc(N[C@@H]5CCC(=O)NC5=O)cc4F)CC3)CC2)ccc1[C@H]1c2ccc(O)cc2CC[C@H]1c1ccccc1 (stereo in doubt) [Compound A84, (R)-3-((3-fluoro-4-(1-((1-(4-((1R,2R)-6-hydroxy-2-phenyl-1,2,3,4-tetrahydronaphthalen-1-yl)-3-methoxyphenyl)piperidin-4-yl)methyl)piperidin-4-yl)-phenyl)amino)piperidine-2,6-dione formate]",,10 to 100 nM,< 1 nM,"Dmax (ER in T47D cells; maximal ER degradation, 16 hrs treatment, read-out: T47D Dmax): 25 to 50%; Dmax (ER in MCF-7 cells; MCF7, MCF-7, maximal ER degradation, 16 hrs treatment, read-out: MCF7 Dmax): < 25%"
"O=C1CC[C@H](N2Cc3cc4c(cc3C2=O)OCC42CCN(C[C@H]3COC4(CCN(c5ccc([C@H]6c7ccc(O)cc7CC[C@H]6c6ccccc6)cc5)CC4)C3)CC2)C(=O)N1 [Compound A22, (S)-3-(1′-(((S)-8-(4-((1S,2R)-6-hydroxy-2-phenyl-1,2,3,4-tetrahydronaphthalen-1-yl)-phenyl)-1-oxa-8-azaspiro[4.5]decan-3-yl)methyl)-7-oxo-5,7-dihydro-2H,6H-spiro[furo[2,3-f]isoindolc-3,4′-pipcridin]-6-yl)pipcridinc-2,6-dione]",,< 1 nM,< 1 nM,Dmax (ER in T47D cells; [4]): 25 to 50%; Dmax (ER in MCF-7 cells; [3]): 50 to 75%
"O=C1CC[C@H](N2Cc3cc4c(cc3C2=O)OCC42CCN(C[C@@H]3COC4(CCN(c5ccc([C@@H]6c7ccc(O)cc7CC[C@@H]6c6ccccc6)cc5)CC4)C3)CC2)C(=O)N1 [Compound A26, (3S)-3-(1′-((8-(4-((1R,2S)-6-hydroxy-2-phenyl-1,2,3,4-tetrahydronaphthalen-1-yl)-phenyl)-1-oxa-8-azaspiro[4.5]decan-3-yl)methyl)-7-oxo-5,7-dihydro-2H,6H-spiro[furo[2,3-f]isoindole-3,4′-piperidin]-6-yl)piperidine-2,6-dione]",,10 to 100 nM,10 to 100 nM,"T47D Dmax (ER in T47D cells; [2]): C (“C”: 25-50%); MCF7 Dmax (ER in MCF-7 cells; MCF-7, maximal ER degradation, 16 hrs treatment): C (“C”: 25-50%)"
"COc1cc(N2CCC(CN3CCC4(CC3)COc3cc5c(cc34)CN([C@H]3CCC(=O)NC3=O)C5=O)CC2)ccc1[C@H]1c2ccc(O)cc2CC[C@H]1c1ccccc1 [Compound A38, (R)-3-(1′-((1-(4-((1S,2S)-6-hydroxy-2-phenyl-1,2,3,4-tetrahydronaphthalen-1-yl)-3-methoxyphenyl)piperidin-4-yl)methyl)-7-oxo-5,7-dihydro-2H,6H-spiro[furo[2,3-f]iso-indole-3,4′-piperidin]-6-yl)-piperidine-2,6-dione formate]",,1 to 10 nM,10 to 100 nM,Dmax (ER in T47D cells; [4]): 25 to 50%; Dmax (ER in MCF-7 cells; [3]): 25 to 50%
"COc1cc(N2CCC(CN3CCC4(CC3)COc3cc5c(cc34)CN([C@H]3CCC(=O)NC3=O)C5=O)CC2)c(F)cc1[C@@H]1c2ccc(O)cc2CC[C@@H]1c1ccccc1 [Compound A122, (S)-3-(1′-((1-(2-fluoro-4-((1S,2S)-6-hydroxy-2-phenyl-1,2,3,4-tetrahydronaphthalen-1-yl)-5-methoxyphenyl)piperidin-4-yl)methyl)-7-oxo-5,7-dihydro-2H,6H-spiro[furo[2,3-f]isoindole-3,4′-piperidin]-6-yl)piperidine-2,6-dione]",,< 1 nM,< 1 nM,Dmax (ER in T47D cells; [4]): 50 to 75%; Dmax (ER in MCF-7 cells; [3]): 50 to 75%
